PubChem BioAssay (NCI)
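Test compounds were applied to cells in 96-well plates for 48 hours at 5 doses. GI50 = concentration required for 50% inhibition of growth. TGI denotes the concentration required for complete inhibition of growth.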

Legend:
Experiment in all cases: NCI anticancer screen, dose series, 48 h
[1] = system: OVCAR-3 ovarian
[2] = system: SK-OV-3 ovarian
[3] = system: MOLT-4 leukemia
[4] = system: SNB-75 CNS
[5] = system: EKVX NSCLC
[6] = system: MALME-3M melanoma
[7] = system: HCT-116 colon
[8] = system: OVCAR-8 ovarian
[9] = system: COLO 205 colon
[10] = system: DLD-1 colon
[11] = system: SF-539 CNS
[12] = system: HCC-2998 colon
[13] = system: UACC-257 melanoma
[14] = system: HOP-18 NSCLC
[15] = system: M19-MEL melanoma
[16] = system: SW-620 colon
[17] = system: SNB-78 CNS
[18] = system: LXFL 529 NSCLC
[19] = system: HCT-15 colon
[20] = system: NCI-H23 lung
[21] = system: SK-MEL-2 melanoma
[22] = system: NCI-H226 lung
[23] = system: SK-MEL-5 melanoma
[24] = system: OVCAR-5 ovarian
[25] = system: DMS 114 small cell lung
[26] = system: SR leukemia
[27] = system: NCI-H460 lung
[28] = system: IGROV1 ovarian
[29] = system: NCI-H522 lung
[30] = system: KM12 colon
[31] = system: OVCAR-4 ovarian
[32] = system: ACHN renal
[33] = system: HOP-92 NSCLC
[34] = system: M14 melanoma
[35] = system: TK-10 renal
[36] = system: UACC-62 melanoma
[37] = system: DMS 273 small cell lung
[38] = system: SN12C renal
[39] = system: SNB-19 CNS
[40] = system: HOP-62 NSCLC
[41] = system: SF-268 CNS
[42] = system: SF-295 CNS
[43] = system: RXF 393 renal
[44] = system: A498 renal
[45] = system: UO-31 renal
[46] = system: LOX IMVI melanoma
[47] = system: KM20L2 colon
[48] = system: 786-0 renal
[49] = system: K-562 leukemia
[50] = system: RPMI-8226 leukemia
[51] = system: SK-MEL-28 melanoma
[52] = system: CCRF-CEM leukemia
[53] = system: U251 CNS
[54] = system: A549 NSCLC
[55] = system: HT29 colon
[56] = system: XF 498 CNS
[57] = system: CAKI-1 renal
[58] = system: HL-60(TB) leukemia

COc1cccc(C=O)c1[O-].COc1cccc(C=O)c1[O-].[Zn+2]
TGI [1]: 92.6 µM | TGI [2]: > 100 µM | TGI [3]: > 100 µM | TGI [4]: > 100 µM | TGI [5]: > 100 µM | TGI [6]: > 100 µM | TGI [7]: > 100 µM | TGI [8]: > 100 µM | TGI [9]: > 100 µM | TGI [10]: > 100 µM | TGI [11]: > 100 µM | TGI [12]: > 100 µM | TGI [13]: 99.2 µM | TGI [14]: > 100 µM | TGI [15]: 98.6 µM | TGI [16]: > 100 µM | TGI [17]: > 100 µM | TGI [18]: > 100 µM | TGI [19]: > 100 µM | TGI [20]: > 100 µM | TGI [21]: > 100 µM | TGI [22]: > 100 µM | TGI [23]: > 100 µM | TGI [24]: > 100 µM | TGI [25]: > 100 µM | TGI [26]: > 100 µM | TGI [27]: > 100 µM | TGI [28]: > 100 µM | TGI [29]: > 100 µM | TGI [30]: > 100 µM | TGI [31]: > 100 µM | TGI [32]: > 100 µM | TGI [33]: 83.6 µM | TGI [34]: > 100 µM | TGI [35]: > 100 µM | TGI [36]: > 100 µM | TGI [37]: > 100 µM | TGI [38]: > 100 µM | TGI [39]: > 100 µM | TGI [40]: > 100 µM | TGI [41]: > 100 µM | TGI [42]: 68.1 µM | TGI [43]: > 100 µM | TGI [44]: > 100 µM | TGI [45]: 90.7 µM | TGI [46]: > 100 µM | TGI [47]: > 100 µM | TGI [48]: > 100 µM | TGI [49]: > 100 µM | TGI [50]: > 100 µM | TGI [51]: > 100 µM | TGI [52]: > 100 µM | TGI [53]: > 100 µM | TGI [54]: > 100 µM | TGI [55]: > 100 µM

CC(=O)[CH-]C(C)=O.CC(=O)[CH-]C(C)=O.[Cl-].[O]=[V]
GI50 [1]: 25.5 µM | TGI [1]: 51.6 µM | GI50 [56]: 17.8 µM | TGI [56]: 66 µM | GI50 [4]: 8.51 µM | TGI [4]: 25.2 µM | GI50 [5]: 30.3 µM | TGI [5]: > 100 µM | GI50 [6]: 9.76 µM | TGI [6]: 27.9 µM | GI50 [7]: 19.1 µM | TGI [7]: 48.3 µM | GI50 [8]: 46.4 µM | TGI [8]: > 100 µM | GI50 [9]: 18.2 µM | TGI [9]: 34.5 µM | GI50 [10]: 34.6 µM | TGI [10]: > 100 µM | GI50 [11]: 17.5 µM | TGI [11]: 37.5 µM | GI50 [12]: 37.1 µM | TGI [12]: > 100 µM | GI50 [14]: > 100 µM | TGI [14]: > 100 µM | GI50 [16]: 38.9 µM | TGI [16]: > 100 µM | GI50 [18]: 47.5 µM | TGI [18]: > 100 µM | GI50 [19]: 36.8 µM | TGI [19]: > 100 µM | GI50 [20]: 14.2 µM | TGI [20]: 34.5 µM | GI50 [21]: 26.8 µM | TGI [21]: 77.1 µM | GI50 [22]: 27.5 µM | TGI [22]: 76.1 µM | GI50 [23]: 28.4 µM | TGI [23]: 70.6 µM | GI50 [24]: 26.4 µM | TGI [24]: 70.1 µM | GI50 [25]: 35.8 µM | TGI [25]: > 100 µM | GI50 [26]: > 100 µM | TGI [26]: > 100 µM | GI50 [27]: 46.2 µM | TGI [27]: > 100 µM | GI50 [28]: 11.1 µM | TGI [28]: 64.2 µM | GI50 [29]: > 100 µM | TGI [29]: > 100 µM | GI50 [34]: 11.4 µM | TGI [34]: 31 µM | GI50 [35]: 24.5 µM | TGI [35]: 60.6 µM | GI50 [36]: 20 µM | TGI [36]: 59.1 µM | GI50 [37]: 20.9 µM | TGI [37]: 39.7 µM | GI50 [38]: 58.1 µM | TGI [38]: > 100 µM | GI50 [39]: 39.9 µM | TGI [39]: > 100 µM | GI50 [42]: 12.1 µM | TGI [42]: 44.8 µM | GI50 [43]: 10.9 µM | TGI [43]: 24.6 µM | GI50 [45]: 63.3 µM | TGI [45]: > 100 µM | GI50 [46]: 14.9 µM | TGI [46]: 44.5 µM | GI50 [48]: 20 µM | TGI [48]: 42.9 µM | GI50 [51]: 25.7 µM | TGI [51]: > 100 µM | GI50 [53]: 22.5 µM | TGI [53]: 59 µM | GI50 [54]: 36.3 µM | TGI [54]: > 100 µM | GI50 [57]: 55.3 µM | TGI [57]: > 100 µM

CO/N=C(/C(=O)Nc1c[n+](CC(=O)[O-])cs1)c1csc(N)n1
TGI [1]: > 100 µM | TGI [2]: > 100 µM | TGI [3]: > 100 µM | TGI [56]: > 100 µM | TGI [5]: > 100 µM | TGI [6]: > 100 µM | TGI [7]: > 100 µM | TGI [8]: > 100 µM | TGI [9]: > 100 µM | TGI [10]: > 100 µM | TGI [11]: > 100 µM | TGI [12]: > 100 µM | TGI [13]: > 100 µM | TGI [14]: > 100 µM | TGI [16]: > 100 µM | TGI [17]: > 100 µM | TGI [18]: > 100 µM | TGI [19]: > 100 µM | TGI [20]: > 100 µM | TGI [21]: > 100 µM | TGI [22]: > 100 µM | TGI [23]: > 100 µM | TGI [24]: > 100 µM | TGI [27]: > 100 µM | TGI [28]: > 100 µM | TGI [29]: > 100 µM | TGI [30]: > 100 µM | TGI [32]: > 100 µM | TGI [33]: > 100 µM | TGI [34]: > 100 µM | TGI [35]: > 100 µM | TGI [36]: > 100 µM | TGI [37]: > 100 µM | TGI [38]: > 100 µM | TGI [39]: > 100 µM | TGI [41]: > 100 µM | TGI [42]: > 100 µM | TGI [44]: > 100 µM | TGI [58]: > 100 µM | TGI [45]: > 100 µM | TGI [46]: > 100 µM | TGI [47]: > 100 µM | TGI [48]: > 100 µM | TGI [49]: > 100 µM | TGI [50]: > 100 µM | TGI [52]: > 100 µM | TGI [53]: > 100 µM | TGI [54]: > 100 µM | TGI [57]: > 100 µM | TGI [55]: > 100 µM
